In data set [1] the test system is Mus musculus. Nature of the data set: Toxicity in albino mouse assessed as translatory movements at 10 mg/kg, ip relative to control. The format is organism-based. Also noted: dose 10 mg/kg, route intraperitoneal. To be noted: in vivo.
A short description of data set [2]: Antinoradrenaline activity in isolated Wistar rat caudal artery assessed as dose required to decrease 20 to 50% of noradrenaline-induced effect per 6 mL/min after 15 mins. In kind it is functional.
The test system of data set [3] is Mus musculus. Nature of the data set: Anticonvulsant activity in ip dosed albino mouse assessed as dose causing total prevention of maximal electroshock-induced maximal extensor seizure. The format is functional.
Data set [4] has as its system Ileum. Nature of the data set: Antihistamine activity in guinea pig ileum assessed as dose required to decrease 50 to 100% of histamine induced effect treated 5 mins before histamine addition. In kind it is functional, Cavia porcellus.
The nature of data set [5]: Antitrypatamine activity in isolated Wistar rat caudal artery assessed as dose required to decrease 20 to 50% of […]-induced effect per 6 mL/min after 15 mins. In kind it is functional.
Data set [6] in a line: Acute toxicity in ip dosed albino mouse measured within 24 hrs. Conditions: in vivo. In kind it is organism-based.
Data set [7] has as its system Ileum. Nature of the data set: Antiacetylcholine activity in guinea pig ileum assessed as dose required to decrease 50 to 100% of acetylcholine-induced effect treated 5 mins before acetylcholine addition. The format is functional, Cavia porcellus.
Data set [8] deals with Mus musculus. The experiment in a line: Neurotoxicity in albino mouse at 10 mg/kg, po up to 5 mins by rotorod test relative to control. In kind it is toxicity, organism-based. Also noted: dose 10 mg/kg, route oral. To be noted: in vivo.
Data set [9] deals with Mus musculus. Nature of the data set: Toxicity in ip dosed mouse assessed as sedative action. In kind it is organism-based. Conditions: in vivo.

Consider `CNC1=Nc2ccc(Cl)cc2C(c2ccccc2)=[N+]([O-])C1` [CHLORDIAZEPOXIDE], for which the Activity in the data set with Mus musculus [1] was -40%; in data set [2], 18 µg/min; in the data set on Mus musculus [3], 90 mg/kg; with Ileum [4], 3 µg/mL; in data set [5] it was 20 µg/min; in the data set on Ileum [7], 3 µg/mL. Besides, the Activity with Mus musculus [8] is given as -50%; with Mus musculus [9], “Non-toxic”. The LD50 at 24 h in data set [6] worked out at 780 mg/kg.
